Results on 33 molecules are retold here after patent publication US20100168093A1, “SUBSTITUTED 3-AMINO-4 -HYDROXY PYRROLIDINES COMPOUNDS, THEIR PREPARATION AND USE AS MEDICAMENTS” (priority 2006, published 2010).

Where a name gives a salt, the structure may show the parent alone.

This assay has as its target T1, Sigma-1 receptor (Cavia porcellus, UniProt Q60492).
T1 construct: guinea pig brains were homogenized; from tissue; host or cells: guinea pig brain membranes
In words: Sigma-1 receptor binding assay, [3H](+)-pentazocine displacement in brain membranes. To be noted: compound at 10^−7 M, [3H](+)-pentazocine 0.5 nM, guinea pig brain membranes, non-specific binding defined by 1 μM haloperidol; for inhibition at 0.1 µM: 2.5 h, read-out: Percent Replacement Sigma-1 receptor [10^−7 M]. On the procedure:
Some representative compounds of the invention were tested for their activity as sigma (sigma-1) inhibitors. The following protocol was followed:
Brain membrane preparation and binding assays for the σ1-receptor were performed as described (DeHaven-Hudkins et al., 1992, Eur. J. Pharmacol. 227, 371-378.) with some modifications. In brief, guinea pig brains were homogenized in 10 vols. (w/v) of Tris-HCl 50 mM 0.32 M sucrose, pH 7.4, with a Kinematica Polytron PT 3000 at 15000 r.p.m. for 30 s. The homogenate was centrifuged at 1000g for 10 min at 4° C. and the supematants collected and centrifuged again at 48000 g for 15 min at 4° C. The pellet was resuspended in 10 volumes of Tris-HCl buffer (50 mM, pH 7.4), incubated at 37° C. for 30 min, and centrifuged at 48000 g for 20 min at 4° C. Following this, the pellet was resuspended in fresh Tris-HCl buffer (50 mM, pH 7.4) and stored on ice until use.
Each assay tube contained 10 μL of [^3H](+)-pentazocine (final concentration of 0.5 nM), 900 μL of the tissue suspension to a final assay volume of 1 mL and a final tissue concentration of approximately 30 mg tissue net weight/mL. Non-specific binding was defined by addition of a final concentration of 1 μM haloperidol. All tubes were incubated at 37° C. for 150 min before termination of the reaction by rapid filtration over Schleicher & Schuell GF 3362 glass fibre filters [previously soaked in a solution of 0.5% polyethylenimine for at least 1 h]. Filters were then washed with four times with 4 mL of cold Tris-HCl buffer (50 mM, pH 7.4). Following addition of scintillation cocktail, the samples were allowed to equilibrate overnight. The amount of bound radioactivity was determined by liquid scintillation spectrometry using a Wallac Winspectral 1414 liquid scintillation counter. Protein concentrations were determined by the method of Lowry et al. (1951; J. Biol. Chem, 193, 265.).

T1 sequence (Q60492 whole entry): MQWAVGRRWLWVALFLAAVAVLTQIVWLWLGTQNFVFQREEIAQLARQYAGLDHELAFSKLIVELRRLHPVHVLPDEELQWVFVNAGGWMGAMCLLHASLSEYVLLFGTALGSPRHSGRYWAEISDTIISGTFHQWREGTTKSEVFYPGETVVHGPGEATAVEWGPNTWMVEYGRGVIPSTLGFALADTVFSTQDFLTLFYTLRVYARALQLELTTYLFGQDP

For `O=S(=O)(c1ccccc1F)N1CCN([C@@H]2CN(Cc3ccccc3)C[C@H]2O)CC1` [Example 76, (3,4-trans)-1-benzyl-4-(4-(2-fluorophenylsulfonyl)piperazin-1-yl)pyrrolidin-3-ol dihydrochloride], the inhibition at 0.1 µM stood at 85%. Turning to `CC(=O)O[C@@H]1CN(Cc2ccccc2)C[C@H]1N1CCN(S(=O)(=O)c2cccc3ccccc23)CC1` [Example 60, (3,4-trans)-1-benzyl-4-(4-(naphthalen-1-ylsulfonyl)piperazin-1-yl)pyrrolidin-3-yl acetate dihydrochloride], the inhibition at 0.1 µM was 40.8%. Same read-out and setting: to `O[C@H]1CN(Cc2ccccc2)C[C@@H]1N1CCN(c2ccccc2Cl)CC1` [Example 86, (3S,4S)-1-benzyl-4-(4-(2-chlorophenyl)piperazin-1-yl)pyrrolidin-3-ol] belongs 86.2%.

`O[C@@H]1CN(Cc2ccccc2)C[C@H]1NCCCN1CCc2ccccc2C1` [Example 9, (3,4-trans)-1-benzyl-4-(3-(3,4-dihydroisoquinolin-2(1H)-yl)propylamino)pyrrolidine-3-ol]: the inhibition at 0.1 µM came to 38.6%.

In the case of `CC(=O)O[C@@H]1CN(Cc2ccccc2)C[C@H]1N1CCN(C(=O)OC(C)(C)C)CC1` [Example 24], the inhibition at 0.1 µM is 73%. As for `O=S(=O)(c1ccccc1)N1CCN([C@@H]2CN(Cc3ccccc3)C[C@H]2O)CC1` [Example 73, (3,4-trans)-1-benzyl-4-(4-(phenylsulfonyl)piperazin-1-yl)pyrrolidin-3-ol], the inhibition at 0.1 µM is 84%. Consider `O[C@@H]1CN(Cc2ccccc2)C[C@H]1Nc1ccccc1` [Example 29, (3,4-trans)-1-benzyl-4-(phenylamino)pyrrolidin-3-ol], for which the inhibition at 0.1 µM amounted to 39.3%. In the case of `COc1ccc(CN[C@@H]2CN(Cc3ccccc3)C[C@H]2O)cc1` [Example 32, (3,4-trans)-1-benzyl-4-(4-methoxybenzylamino)pyrrolidin-3-ol], the inhibition at 0.1 µM stood at 59.1%. `CC(=O)O[C@@H]1CN(Cc2ccccc2)C[C@H]1N1CCN(S(=O)(=O)c2ccc(C)cc2)CC1` [Example 56, (3,4-trans)-1-benzyl-4-(4-tosylpiperazin-1-yl)pyrrolidin-3-yl acetate dihydrochloride]: the inhibition at 0.1 µM was 38%. In the case of `O[C@@H]1CN(Cc2ccccc2)C[C@H]1N1CCN(Cc2c(F)cccc2Cl)CC1` [Example 78, (3,4-trans)-1-benzyl-4-(4-(2-chloro-6-fluorobenzyl)piperazin-1-yl)pyrrolidine-3-ol], the inhibition at 0.1 µM is 81.9%. Regarding `CC(=O)O[C@@H]1CN(Cc2ccccc2)C[C@H]1N1CCN(S(=O)(=O)c2ccccc2F)CC1` [Example 75, (3,4-trans)-1-benzyl-4-(4-(2-fluorophenylsulfonyl)piperazin-1-yl)pyrrolidin-3-yl acetate dihydrochloride], the inhibition at 0.1 µM turned out to be 95.5%. As to `O=S(=O)(c1ccccc1Br)N1CCN([C@@H]2CN(Cc3ccccc3)C[C@H]2O)CC1` [Example 67, (3,4-trans)-1-benzyl-4-(4-(2-bromophenylsulfonyl)piperazin-1-yl)pyrrolidin-3-ol dihydrochloride], the inhibition at 0.1 µM was 86.7%. With `COc1ccnc(N2CCN([C@@H]3CN(Cc4ccccc4)C[C@H]3O)CC2)n1` [Example 10, (3,4-trans)-1-benzyl-4-(4-(4-methoxypyrimidin-2-yl)piperazin-1-yl)pyrrolidine-3-ol], the inhibition at 0.1 µM is 77.8%. Take `O[C@@H]1CN(Cc2ccccc2)C[C@H]1N1CCN(Cc2ccc(Cl)c(Cl)c2)CC1` [Example 79, (3,4-trans)-1-benzyl-4-(4-(3,4-dichlorobenzyl)piperazin-1-yl)pyrrolidine-3-ol]: the inhibition at 0.1 µM was found to be 88.4%. For the molecule `CC(=O)O[C@@H]1CN(Cc2ccccc2)C[C@H]1N1CCN(S(=O)(=O)c2ccccc2-c2ccccc2)CC1` (relative stereo) [Example 27, trans 1-Benzyl-4-(4-(2-phenyl-phenylsulfonyl)piperazin-1-yl)pyrrolidin-3-yl acetate], the inhibition at 0.1 µM worked out at 24.7%.

For `C[C@@H](c1ccccc1)N1C[C@@H](O)[C@H](N2CCc3ccccc3C2)C1` [Example 16, (3,4-trans)-4-(3,4-dihydroisoquinolin-2(1H)-yl)-1((S)-1-phenylethyl)pyrrolidine-3-ol], the inhibition at 0.1 µM amounted to 49.9%.

Take `O[C@@H]1CN(Cc2ccccc2)C[C@H]1N1CCN(c2ccc(Cl)c(Cl)c2)CC1` [Example 88, (3,4-trans)-1-benzyl-4-(4-(3,4-dichlorophenyl)piperazin-1-yl)pyrrolidin-3-ol]: the inhibition at 0.1 µM is 93.1%. For `O[C@@H]1CN(Cc2ccccc2)C[C@H]1N1CCC(CN2CCc3ccccc3C2)CC1` [Example 5, (3,4-trans)-1-benzyl-4-(4-((3,4-dihydrolsoquinolin-2(1H)-yl)methyl)piperidin-1-yl)pyrrolidine-3-ol], the inhibition at 0.1 µM turned out to be 63.5%. Turning to `O=S(=O)(c1ccccc1F)N1CCN([C@H]2CN(Cc3ccccc3)C[C@@H]2O)CC1` [Example 77, (3S,4S)-1-benzyl-4-(4-(2-fluorophenylsulfonyl)piperazin-1-yl)pyrrolidin-3-ol dihydrochloride], the inhibition at 0.1 µM was 46.1%. Turning to `O[C@@H]1CN(Cc2ccccc2)C[C@H]1N1CCc2cccc3c2C1CC3` (stereo partly drawn) [Example 11, (3,4-trans)-1-benzyl-4-(2,3,8,8a-tetrahydrocyclopenta[ij]isoquinolin-1(7H)-yl)pyrrolidine-3-ol], the inhibition at 0.1 µM was found to be 81.1%. `CC(C)(C)OC(=O)N1CCN([C@@H]2CN(Cc3ccccc3)C[C@H]2O)CC1` [Example 12, tert-butyl-4-((3,4-trans)-1-benzyl-4-hydroxypyrrolidine-3-yl)piperazine-1-carboxylate]: the inhibition at 0.1 µM is 96.5%. In the case of `COC(=O)c1ccc(N[C@@H]2CN(Cc3ccccc3)C[C@H]2O)cc1` [Example 38, Methyl 4-((3,4-trans)-1-benzyl-4-hydroxypyrrolidin-3-ylamino)benzoate], the inhibition at 0.1 µM came out at 55.9%. Same read-out and setting: to `O[C@@H]1CN(Cc2ccccc2)C[C@H]1N1CCN(c2ccccc2Cl)CC1` [Example 85] belongs 107%.

Consider `O=S(=O)(c1ccccc1F)N1CCN([C@@H]2CN(Cc3ccccc3)C[C@H]2O)CC1` [Example 48, (3R,4R)-1-benzyl-4-(4-(2-fluorophenylsulfonyl)piperazin-1-yl)pyrrolidin-3-ol], for which the “Percent Replacement Sigma-1 receptor [10^−7 M]” value is reported as 96.5%. With `O[C@@H]1CN(Cc2ccccc2)C[C@H]1N1CCN(c2ccc(F)cc2)CC1` [Example 83, (3,4-trans)-1-benzyl-4-(4-(4-fluorophenyl)piperazin-1-yl)pyrrolidin-3-ol], the inhibition at 0.1 µM amounted to 69.7%. Same read-out and setting: the same measure for `Cc1ccc(F)cc1S(=O)(=O)N1CCN([C@@H]2CN(Cc3ccccc3)C[C@H]2O)CC1` [Example 70, (3,4-trans)-1-benzyl-4-(4-(5-fluoro-2-methylphenylsulfonyl)piperazin-1-yl)pyrrolidin-3-ol dihydrochioride]: 81.4%; for `Cc1ccc(S(=O)(=O)N2CCN([C@@H]3CN(Cc4ccccc4)C[C@H]3O)CC2)cc1` [Example 57, (3,4-trans)-1-benzyl-4-(4-tosylpiperazin-1-yl)pyrrolidin-3-ol dihydrochloride]: 16.8%. `COc1ccc(N[C@@H]2CN(Cc3ccccc3)C[C@H]2O)cc1` [Example 37, (3R,4R)-1-benzyl-4-(4-methoxyphenylamino)pyrrolidin-3-ol]: the inhibition at 0.1 µM was 65.4%. Still for that read-out and setting: to `CCCCCCCCN[C@@H]1CN(Cc2ccccc2)C[C@H]1O` [Example 31, (3R,4R)-1-benzyl-4-(octylamino)pyrrolidin-3-ol] belongs 89.9%. For `O[C@@H]1CN(Cc2ccccc2)C[C@H]1N1CCN(c2ccccc2Cl)CC1` [Example 84, (3,4-trans)-1-benzyl-4-(4-(2-chlorophenyl)piperazin-1-yl)pyrrolidin-3-ol], the “Percent Replacement Sigma-1 receptor [10^−7 M]” value came out at 94.6%. Regarding `O=S(=O)(c1cccc2ccccc12)N1CCN([C@@H]2CN(Cc3ccccc3)C[C@H]2O)CC1` [Example 61, (3,4-trans)-1-benzyl-4-(4-(naphthalen-1-ylsulfonyl)piperazin-1-yl)pyrrolidin-3-ol dihydrochloride], the inhibition at 0.1 µM is 30.1%.

For `CC(=O)O[C@@H]1CN(Cc2ccccc2)C[C@H]1N1CCN(S(=O)(=O)c2ccccc2Cl)CC1` [Example 52, (3R,4R)-1-benzyl-4(4-(2-chlorophenylsulfonyl)piperazin-1-yl)pyrrolidin-3-yl acetate], the inhibition at 0.1 µM turned out to be 92.4%.

Consider `O[C@@H]1CN(Cc2ccccc2)C[C@H]1N1CCc2ccccc2C1` [Example 1, (3,4-trans)-1-benzyl-4-(3,4-dihydroisoquinolin-2(1H)-yl)pyrrolidine-3-ol], for which the inhibition at 0.1 µM was determined as 84.9%.
